Assay results taken from patent US9528112B2, “Composition comprising material for inhibiting SCF or receptor thereof for treating or preventing diseases associated with vascular permeability” (AJOU UNIVERSITY INDUSTRY-ACADEMIC COOPERATION FOUNDATION, priority 2012, dated 2016).

How the values were obtained:
C-Kit and Akt-eNOS = assay: Intracellular signaling pathway of vascular endothelial cells with SCF (Western blotting); format: cell-based; details: SCF 20 ng/ml, cells harvested over time, FIG. 1C
Experimental: Vascular endothelial cells were loaded in 60 mm plate, followed by culture for 24 hours. The medium was replaced with the endothelical basal medium supplemented with 1% FBS, followed by further culture for 6 hours. SCF (20 ng/ml) was treated thereto and the cells were harvested over the time, followed by Western blotting.

VE-cadherin = VE-cadherin endocytosis of vascular endothelial cells (immunostaining); format: cell-based; details: SCF 20 ng/ml or VEGF 50 ng/ml, 37° C., 30 minutes; for expression of VE-cadherin on the cell surface: FIG. 2C; for endocytosis of VE-cadherin: acid buffer wash, FIG. 2D
Experimental: Vascular endothelial cells were cultured in 8 well chamber slide (Lab-Tek) for 48 hours. The medium was replaced with the endothelical basal medium supplemented with 1% FBS, followed by culture for 16 hours. The cells were treated with VE-cadherin antibody (R&D Systems, Minneapolis, Minn., USA) at 4° C. for 1 hour. SCF (20 ng/ml) and VEGF (50 ng/ml) (R&D Systems, Minneapolis, Minn., USA) were added thereto at 37° C. for 30 minutes to introduce VE-cadherin into the cells. To observe VE-cadherin on the cell surface, fixation was performed with 4% PFA, followed by immunostaining. To observe VE-cadherin in the inside of the cells migrated by SCF and VEGF mediated endocytosis, VE-cadherin on the cell surface was first removed by using an acid buffer (pH 2.7) and then the cells were fixed with 4% PFA, followed by immunostaining. Then, observation under a fluorescence microscope was performed.

[1] = system: vascular endothelial cells; assay: eNOS dependent increase of vascular endothelial cell permeability by SCF (L-NAME, transwell); format: cell-based; details: SCF 20 ng/ml for 1 hour; FIG. 2B
Experimental: Vascular endothelial cells were loaded in the upper chamber of 12 well transwell filter (Corning Costar), followed by culture for 48 hours. The medium was replaced with the endothelical basal medium supplemented with 1% FBS, followed by further culture for 3 hours. L-NAME, the eNOS inhibitor, was pretreated (1 mM) to the cells for 30 minutes and then SCF (R&D Systems, Minneapolis, Minn., USA) was treated (20 ng/ml) thereto for 1 hour. FITC-conjugated dextran (fluorescein isothiocyanate-dextran) was also treated (1 mg/ml) thereto. 30 minutes later, the culture fluid was taken from the lower chamber, followed by the measurement with a fluorophotometer.

C57/BL mouse = assay: Vascular permeability in mouse subcutaneous tissue (Evans blue dye, back skin, OD620); format: in vivo; details: SCF injected intradermally; skin collected after 20 minutes; FIG. 3A, 3B
Experimental: Evans blue dye […] was injected intravenously in the tail of C57/BL mouse. 10 minutes later, SCF and SCF receptor inhibiting antibody (anti-cKit IgG: Monoclonal anti-SCF receptor neutralization antibody: R&D Systems, Minneapolis, Minn., USA) were injected intradermally on the back of the mouse. 20 minutes later, the back skin of the mouse was collected. The region where Evans blue dye was penetrated through tissues was photographed. The skin was fixed in formamide, which stood at room temperature for 4 days. Then, OD620 was measured by using a spectrophotometer.

[2] = system: vascular endothelial cells; assay: Vascular endothelial cell permeability with SCF (transwell, FITC-dextran); format: cell-based; details: SCF 10, 20 and 50 ng/ml for 1 hour; FITC-conjugated dextran 1 mg/ml, 30 minutes; FIG. 1A
Experimental: Vascular endothelial cells were loaded in the upper chamber of 12 well transwell filter (Corning Costar), followed by culture for 48 hours. The medium was replaced with the endothelical basal medium supplemented with 1% FBS, followed by further culture for 3 hours. SCF (R&D Systems, Minneapolis, Minn., USA) was treated thereto at different concentrations (10, 20, and 50 ng/ml) for 1 hour, followed by the treatment with FITC-conjugated dextran (fluorescein isothiocyanate-dextran) (1 mg/ml). 30 minutes later, the culture fluid was taken from the lower chamber, followed by the measurement with a fluorophotometer.

[3] = system: vascular endothelial cells; assay: C-Kit dependent permeability of vascular endothelial cells with SCF (siRNA, transwell, FITC-dextran); format: cell-based; details: SCF 20 ng/ml; FITC-conjugated dextran; FIG. 1B
Experimental: Vascular endothelial cells were loaded in 60 mm plate. The control siRNA 5′-[…]-3′ (SEQ. ID. NO: 1) and the C-Kit siRNAs 5′-UCAUUCUUGAUGUCUCUGG-3′ (SEQ. ID. NO: 2); 5′-UUUGAGUUCAGACAUGAGG-3′ (SEQ. ID. NO: 3); 5′-UCUUAUAAAGUGCAGCUUC-3′ (SEQ. ID. NO: 4); and 5′-UACAAUGCCAUUCUGAAGC-3′ (SEQ. ID. NO: 5) were introduced in the cells by using lipofectamin. 24 hours later, the endothelial cells were transferred into the upper chamber of 12 well transwell filter (Corning Costar), followed by culture for 24 hours. The medium was replaced with the endothelical basal medium supplemented with 1% FBS, followed by further culture for 3 hours. SCF was treated thereto at the concentration of 20 ng/ml, followed by the treatment with FITC-conjugated dextran (1 mg/ml). 30 minutes later, the culture fluid was taken from the lower chamber, followed by the measurement with a fluorophotometer.

mouse retinal vessels = assay: Angiography of mouse retinal vessels (FITC-dextran, flat mount); format: in vivo; details: SCF injected in the retina; 24 hours; FIG. 4A, 4B
Experimental: SCF and SCF receptor inhibiting antibody were injected in the retina of C57/BL6 mouse. 24 hours later, the mouse was anesthetized and then intracardiac FITC-dextran injection was performed in order to let the fluorescein flow through blood. 30 minutes later, the retina of the mouse was extracted and observed under a fluorescence microscope after flat mounting.

[4] = system: NO (nitric oxide) in vascular endothelial cells; assay: Generation of NO in vascular endothelial cells induced by SCF; format: cell-based; details: SCF 20 ng/ml; culture supernatant collected over time; FIG. 2A
Experimental: Vascular endothelial cells were cultured in 12 well plate for 24 hours. The medium was replaced with the endothelial basal medium supplemented with 1% FBS, which was then treated with SCF (20 ng/ml). The culture fluid was collected over the time, followed by centrifugation. The level of NO (nitric oxide) in the supernatant was measured (Total No/Nitrite/Nitrate Assay Kit).

SCF: cytokine binding to C-Kit (CD117); R&D Systems
phosphorylation of C-Kit and Akt-eNOS (C-Kit and Akt-eNOS): induced the phosphorylation
expression of VE-cadherin on the cell surface (VE-cadherin): reduced
endocytosis of VE-cadherin (VE-cadherin): induced
permeability of endothelial cells [1]: increased
vascular permeability of the mouse (Evans blue leakage in back skin) (C57/BL mouse): increased
permeability of vascular endothelial cells [2]: increased by the treatment of SCF dose-dependently
permeability of the endothelial cells [3]: increased
retinal vessel permeability (mouse retinal vessels): increased
level of NO [4]: increased

VEGF
expression of VE-cadherin on the cell surface (VE-cadherin): decreased
endocytosis of VE-cadherin (VE-cadherin): increased
